Where a name gives a salt, the structure may show the parent alone.
Molecular target: T1, androgen receptor (Rattus norvegicus, UniProt P15207)
T1 sequence (P15207 1-902): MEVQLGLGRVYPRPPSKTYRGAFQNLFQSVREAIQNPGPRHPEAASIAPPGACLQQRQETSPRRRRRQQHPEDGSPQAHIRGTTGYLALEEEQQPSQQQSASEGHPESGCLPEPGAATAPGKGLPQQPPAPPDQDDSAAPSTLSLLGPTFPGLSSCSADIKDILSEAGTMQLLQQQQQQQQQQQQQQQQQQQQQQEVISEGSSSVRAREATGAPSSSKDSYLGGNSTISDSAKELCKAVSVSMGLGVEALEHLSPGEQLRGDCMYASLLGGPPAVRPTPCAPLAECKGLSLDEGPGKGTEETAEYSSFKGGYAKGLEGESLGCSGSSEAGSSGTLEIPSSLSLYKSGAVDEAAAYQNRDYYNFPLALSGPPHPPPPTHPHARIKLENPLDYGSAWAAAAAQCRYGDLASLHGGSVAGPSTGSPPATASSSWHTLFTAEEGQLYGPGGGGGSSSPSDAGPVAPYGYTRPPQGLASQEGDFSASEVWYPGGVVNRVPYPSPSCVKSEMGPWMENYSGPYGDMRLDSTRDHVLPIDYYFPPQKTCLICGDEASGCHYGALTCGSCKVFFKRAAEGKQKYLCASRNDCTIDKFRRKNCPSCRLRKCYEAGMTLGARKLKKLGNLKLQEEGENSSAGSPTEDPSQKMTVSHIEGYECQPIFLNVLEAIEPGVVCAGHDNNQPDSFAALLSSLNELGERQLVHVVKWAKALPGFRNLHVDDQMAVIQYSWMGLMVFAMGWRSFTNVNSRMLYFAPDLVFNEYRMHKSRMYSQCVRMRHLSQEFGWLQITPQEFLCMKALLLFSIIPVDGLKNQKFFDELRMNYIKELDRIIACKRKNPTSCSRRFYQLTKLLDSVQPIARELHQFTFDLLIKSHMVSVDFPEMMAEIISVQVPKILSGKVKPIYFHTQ
Experiment: Measurement of organ selective androgen receptor regulating action (organ weights in castrated, testosterone propionate-supplemented rats)
Type: in vivo, Sprague-Dawley male rat
Design: from tissue; host or cells: Sprague-Dawley male rat, whole animal (levator ani muscle, prostate, vesicular gland)
Details: testosterone propionate 0.5 mg/kg s.c. once a day, twice a day, 1 week
Procedure: A 3-week-old Sprague-Dawley male rat was castrated, and testosterone•propionate (0.5 mg/kg) was administered subcutaneously once a day from the next day. Simultaneously, a test compound was dissolved in 10% ethanol/corn oil, and orally administered twice a day. The next day of a 1 week administration, the weights of the levator ani muscle, prostate and vesicular gland were measured. The dose of the test compound is indicated in a daily amount.
As the test compounds, compound 114, compound 158, compound 117, compound 119 and compound of Reference Example 2 were used.

[1] = test compound 4.143 mg/kg/day orally
[2] = test compound 13.81 mg/kg/day orally
[3] = test compound 3 mg/kg/day orally
[4] = test compound 10 mg/kg/day orally
[5] = test compound 0.4138 mg/kg/day orally
[6] = test compound 1.379 mg/kg/day orally

## 4-[(2S,3R)-3-hydroxy-2-methyl-1-pyrrolidinyl]-1-naphtonitrile methanesulfonate [compound 114]
[1]
  levator ani muscle weight, relative % to control: 142.1%
  prostate weight, relative % to control: 90.6%
[2]
  levator ani muscle weight, relative % to control: 157.7%
  prostate weight, relative % to control: 99.1%

## C[C@H]1[C@@H](C(C)(C)O)CCN1c1ccc(C#N)c2sccc12 [Reference Example 2, 4-[(2S,3S)-3-(1-hydroxy-1-methylethyl)-2-methylpyrrolidin-1-yl]-1-benzothiophene-7-carbonitrile]
[3]
  levator ani muscle weight, relative % to control: 108.0%
  prostate weight, relative % to control: 92.0%
[4]
  levator ani muscle weight, relative % to control: 120.1%
  prostate weight, relative % to control: 87.5%

## C[C@H]1[C@@H](O)CCN1c1ccc(C#N)c2sccc12 [compound 119, 4-[(2S,3S)-3-hydroxy-2-methyl-1-pyrrolidinyl]-1-benzothiophene-7-carbonitrile sulfate]
[5]
  levator ani muscle weight, relative % to control: 131.5%
  prostate weight, relative % to control: 87.8%
[6]
  levator ani muscle weight, relative % to control: 151.8%
  prostate weight, relative % to control: 91.4%

Reference: patent publication US20090042857A1, “Novel Pharmaceutical” (priority 2006, published 2009)
